This passage reports IC50 results from paper PMC8564633, “SMAC/Diablo controls proliferation of cancer cells by regulating phosphatidylethanolamine synthesis” (Molecular Oncology, 2021).

In the test the test system is A549 cells. The test is classed as cell-based, human. The settings on record: 24 h. The procedure:
Cells were seeded in 96‐well cell culture plates (8000/well) and allowed to grow for 48 h. After washing with PBS, cells were fixed with 50% trichloroacetic acid and stained with SRB for 20 min. Excess SRB was removed, and cells were washed with 1% acetic acid. SRB extraction was done using 100 mM Tris‐base, and absorbance at 510 nm was determined using an Infinite M1000 plate reader (Tecan, Männedorf, Switzerland).
Fig. 7 PSD‐interacting peptides bind to PSD, inhibiting its activity, and when cell‐penetrating and mitochondria‐ or nucleus‐targeted, inhibit cell proliferation. […] (B) Inhibition of PSD activity by the 2F3 (●) or 1C11 (○) peptide. PSD activity was measured using the DSB‐3 method. (C‐E) Cell proliferation inhibition following incubation of A549 cells with the indicated mitochondria‐ or nucleus‐targeted peptides for 24 h in a serum‐free medium, and cell proliferation was assayed using the SRB method. Results are the means ± SEM (n = 3). (F) A549 cells were incubated for 90 min with 5 µM of the mitochondria‐ or nucleus‐targeted FITC‐labelled peptides, immunostained with anti‐SMAC antibodies and with DAPI and visualized by confocal microscope for subcellular localization. (a) and (b) present higher magnification, white arrows point to possible nuclear localization of the peptide, and blue arrows to its colocalization with mitochondria marker (n = 3). Scale bars represent 20, 10 µm as indicated.
Table S4. Effects of peptide identified as interacting with PSD or their interaction with SMAC/Diablo is prevented in the presence of PSD on A549 lung cancer cell growth A549 cells were seeded in 96-well plate (7000 cells/well). After 24 h cells were incubated without or with the indicated peptide concentration for 24 h in a serum-free medium. Then, cells were washed with PBS, and analyzed for cell growth using the SRB method. Results are the mean ± SD (n=3). Peptide sequence, its identification manner, based on interacting with PSD or their interaction with SMAC/Diablo is prevented in the presence of PSD are shown. In addition, the peptides are presented with the cell penetrating peptide targeting to the mitochondria or the nucleus. The results are presented as the concentration required for 50% inhibition (IC50).
No Peptide spot and Protein/Function Peptide and Cellular IC50 […]
ALSTSSPIPSVPQSQ transcriptional coactivator 2 Mitochondria (A) […]
AQPQTGSGAS truncated poly Q, transcriptional H-(D-Arg)–Dmt–Orn–Phe- 2F3 >100 Interacting with PSD coactivator for NOTCH proteins, Mitochondria promotes proliferative signaling R-{D-Arg}-RK- 2F3 28.9±5.2 during neurogenesis (Nucleus). Nucleus […]
PNQSSRAFQGTDHS transcriptional coactivator 2 Mitochondria
SDLAFDFLSQQ truncated poly Q, A transcriptional D-Arg–Dmt–Orn–Phe-2I8 66.8±4.7 Identified by PSD coactivator for NOTCH proteins, Mitochondria preventing SMAC promotes proliferative signaling R-{D-Arg}-RK-2I8 >100 interaction with it during neurogenesis (Nucleus). Nucleus […]
ALLTSGTSDPRARV protease promotes cell death either Mitochondria […]
TYGTPSLWARL by direct binding to IAPs proteins D-Arg–Dmt–Orn–Phe -1C11 89.3±5.49 Interacting with PSD leading to increased caspase Mitochondria activity or caspase-independent and serine protease activity-dependent R-{D-Arg}-RK- 1C11 66.5±3.9 mechanism. (Mitochondrion Nucleus intermembrane space). 1C11- R-{D-Arg}-RK 30.0±3.8 […]
ELYRMSTYSTFPAG Acts as an E3 ubiquitin-protein Mitochondria
VPVSERSLARA ligase, regulator of NF-kappa-B 1E14- D-Arg–Dmt–Orn–Phe >100 Identified by PSD signaling, apoptosis, cell Mitochondria preventing SMAC proliferation, cell invasion and R-{D-Arg}-RK-1E14 >100 interaction with it metastasis, modulates inflammatory Nucleus signaling, (Cytosol, nucleus and […]

The mark [1] stands for this setting: A549 cells, serum‐free medium, SRB, read-out: IC50, cell proliferation inhibition.

Read-outs that look alike come from different tables or passages of the source. Non-standard residues stand in square brackets, D forms with d. Residues, ends and D or L forms follow the SMILES beside them. Dmt = Cc1cc(O)cc(C)c1C[C@H](N)C(=O)O; Orn = NCCC[C@H](N)C(=O)O

As for 2F3 -D-Arg–Dmt–Orn–Phe, the IC50 under setting [1] came out at 19.6 µM.

As to `Cc1cc(O)cc(C)c1C[C@H](NC(=O)[C@@H](CCCNC(=N)N)NC(=O)[C@H](CC(C)C)NC(=O)[C@H](CCCNC(=N)N)NC(=O)[C@H](C)NC(=O)[C@H](Cc1c[nH]c2ccccc12)NC(=O)[C@H](CC(C)C)NC(=O)[C@H](CO)NC(=O)[C@@H]1CCCN1C(=O)[C@@H](NC(=O)CNC(=O)[C@H](Cc1ccc(O)cc1)NC(=O)[C@@H](NC(=O)[C@@H](NC(=O)[C@H](CCCNC(=N)N)NC(=O)[C@H](C)NC(=O)[C@H](CCCNC(=N)N)NC(=O)[C@@H]1CCCN1C(=O)[C@H](CC(=O)O)NC(=O)[C@H](CO)NC(=O)[C@@H](NC(=O)CNC(=O)[C@H](CO)NC(=O)[C@@H](NC(=O)[C@H](CC(C)C)NC(=O)[C@H](CC(C)C)NC(=O)[C@H](C)N)[C@@H](C)O)[C@@H](C)O)C(C)C)[C@@H](C)O)[C@@H](C)O)C(=O)N[C@@H](CCCN)C(=O)N[C@@H](Cc1ccccc1)C(N)=O` [1C11-D-Arg–Dmt–Orn–Phe] (H-ALLTSGTSDPRARVTYGTPSLWARL[dR][Dmt][Orn]F-NH2; N-terminus and C-terminus assumed), the IC50 amounted to 30.3 ± 5.5 µM.

For the compound `CC(C)C[C@H](NC(=O)[C@H](C)N)C(=O)N[C@@H](CC(C)C)C(=O)N[C@H](C(=O)N[C@@H](CO)C(=O)NCC(=O)N[C@H](C(=O)N[C@@H](CO)C(=O)N[C@@H](CC(=O)O)C(=O)N1CCC[C@H]1C(=O)N[C@@H](CCCNC(=N)N)C(=O)N[C@@H](C)C(=O)N[C@@H](CCCNC(=N)N)C(=O)N[C@H](C(=O)N[C@H](C(=O)N[C@@H](Cc1ccc(O)cc1)C(=O)NCC(=O)N[C@H](C(=O)N1CCC[C@H]1C(=O)N[C@@H](CO)C(=O)N[C@@H](CC(C)C)C(=O)N[C@@H](Cc1c[nH]c2ccccc12)C(=O)N[C@@H](C)C(=O)N[C@@H](CCCNC(=N)N)C(=O)N[C@@H](CC(C)C)C(=O)N[C@@H](CCCNC(=N)N)C(=O)N[C@H](CCCNC(=N)N)C(=O)N[C@@H](CCCNC(=N)N)C(=O)N[C@@H](CCCCN)C(=O)O)[C@@H](C)O)[C@@H](C)O)C(C)C)[C@@H](C)O)[C@@H](C)O` [1C11-R-{D-Arg}-RK] (H-ALLTSGTSDPRARVTYGTPSLWARLR[dR]RK-OH; N-terminus and C-terminus assumed), the IC50 is 30 µM.

As to `CSCC[C@H](NC(=O)[C@H](CCCNC(=N)N)NC(=O)[C@H](Cc1ccc(O)cc1)NC(=O)[C@H](CC(C)C)NC(=O)[C@@H](N)CCC(=O)O)C(=O)N[C@@H](CO)C(=O)N[C@H](C(=O)N[C@@H](Cc1ccc(O)cc1)C(=O)N[C@@H](CO)C(=O)N[C@H](C(=O)N[C@@H](Cc1ccccc1)C(=O)N1CCC[C@H]1C(=O)N[C@@H](C)C(=O)NCC(=O)N[C@H](C(=O)N1CCC[C@H]1C(=O)N[C@H](C(=O)N[C@@H](CO)C(=O)N[C@@H](CCC(=O)O)C(=O)N[C@@H](CCCNC(=N)N)C(=O)N[C@@H](CO)C(=O)N[C@@H](CC(C)C)C(=O)N[C@@H](C)C(=O)N[C@@H](CCCNC(=N)N)C(=O)N[C@@H](C)C(=O)N[C@H](CCCNC(=N)N)C(=O)N[C@@H](Cc1c(C)cc(O)cc1C)C(=O)N[C@@H](CCCN)C(=O)N[C@@H](Cc1ccccc1)C(N)=O)C(C)C)C(C)C)[C@@H](C)O)[C@@H](C)O` [1E14-D-Arg–Dmt–Orn–Phe] (H-ELYRMSTYSTFPAGVPVSERSLARA[dR][Dmt][Orn]F-NH2; N-terminus and C-terminus assumed), the IC50 is > 100 µM.

For the compound `CC[C@H](C)[C@H](NC(=O)[C@@H]1CCCN1C(=O)[C@H](CO)NC(=O)[C@H](CO)NC(=O)[C@@H](NC(=O)[C@H](CO)NC(=O)[C@H](CC(C)C)NC(=O)[C@H](C)N)[C@@H](C)O)C(=O)N1CCC[C@H]1C(=O)N[C@@H](CO)C(=O)N[C@H](C(=O)N1CCC[C@H]1C(=O)N[C@@H](CCC(N)=O)C(=O)N[C@@H](CO)C(=O)N[C@@H](CCC(N)=O)C(=O)N[C@@H](C)C(=O)N[C@@H](CCC(N)=O)C(=O)N1CCC[C@H]1C(=O)N[C@@H](CCC(N)=O)C(=O)N[C@H](C(=O)NCC(=O)N[C@@H](CO)C(=O)NCC(=O)N[C@@H](C)C(=O)N[C@@H](CO)C(=O)N[C@@H](CCCNC(=N)N)C(=O)N[C@H](CCCNC(=N)N)C(=O)N[C@@H](CCCNC(=N)N)C(=O)N[C@@H](CCCCN)C(=O)O)[C@@H](C)O)C(C)C` [2F3-R-{D-Arg}-RK] (H-ALSTSSPIPSVPQSQAQPQTGSGASR[dR]RK-OH; N-terminus and C-terminus assumed), the IC50 stood at 29.6 ± 0.6 µM. Moreover, under setting [1], the IC50 is 19.6 µM.

As for `Cc1cc(O)cc(C)c1C[C@H](NC(=O)[C@@H](CCCNC(=N)N)NC(=O)[C@H](CCC(N)=O)NC(=O)[C@H](CCC(N)=O)NC(=O)[C@H](CO)NC(=O)[C@H](CC(C)C)NC(=O)[C@H](Cc1ccccc1)NC(=O)[C@H](CC(=O)O)NC(=O)[C@H](Cc1ccccc1)NC(=O)[C@H](C)NC(=O)[C@H](CC(C)C)NC(=O)[C@H](CC(=O)O)NC(=O)[C@H](CO)NC(=O)[C@H](CO)NC(=O)[C@H](Cc1c[nH]cn1)NC(=O)[C@H](CC(=O)O)NC(=O)[C@@H](NC(=O)CNC(=O)[C@H](CCC(N)=O)NC(=O)[C@H](Cc1ccccc1)NC(=O)[C@H](C)NC(=O)[C@H](CCCNC(=N)N)NC(=O)[C@H](CO)NC(=O)[C@H](CO)NC(=O)[C@H](CCC(N)=O)NC(=O)[C@H](CC(N)=O)NC(=O)[C@@H]1CCCN1)[C@@H](C)O)C(=O)N[C@@H](CCCN)C(=O)N[C@@H](Cc1ccccc1)C(N)=O` [2I8- (D-Arg)-Dmt-Orn-Phe-NH2] (H-PNQSSRAFQGTDHSSDLAFDFLSQQ[dR][Dmt][Orn]F-NH2; N-terminus assumed), the IC50 was 30.2 ± 3.6 µM.

`CC(C)C[C@H](NC(=O)[C@H](CC(=O)O)NC(=O)[C@H](CO)NC(=O)[C@H](CO)NC(=O)[C@H](Cc1c[nH]cn1)NC(=O)[C@H](CC(=O)O)NC(=O)[C@@H](NC(=O)CNC(=O)[C@H](CCC(N)=O)NC(=O)[C@H](Cc1ccccc1)NC(=O)[C@H](C)NC(=O)[C@H](CCCNC(=N)N)NC(=O)[C@H](CO)NC(=O)[C@H](CO)NC(=O)[C@H](CCC(N)=O)NC(=O)[C@H](CC(N)=O)NC(=O)[C@@H]1CCCN1)[C@@H](C)O)C(=O)N[C@@H](C)C(=O)N[C@@H](Cc1ccccc1)C(=O)N[C@@H](CC(=O)O)C(=O)N[C@@H](Cc1ccccc1)C(=O)N[C@@H](CC(C)C)C(=O)N[C@@H](CO)C(=O)N[C@@H](CCC(N)=O)C(=O)N[C@@H](CCC(N)=O)C(=O)N[C@@H](CCCNC(=N)N)C(=O)N[C@H](CCCNC(=N)N)C(=O)N[C@@H](CCCNC(=N)N)C(=O)N[C@@H](CCCCN)C(=O)O` [2I8-R-{D-Arg}-RK] (H-PNQSSRAFQGTDHSSDLAFDFLSQQR[dR]RK-OH; N-terminus and C-terminus assumed) registered an IC50 of 19.7 µM.

Compound `Cc1cc(O)cc(C)c1C[C@H](NC(=O)[C@H](N)CCCNC(=N)N)C(=O)N[C@@H](CCCN)C(=O)N[C@@H](Cc1ccccc1)C(=O)N[C@@H](C)C(=O)N[C@@H](CC(C)C)C(=O)N[C@@H](CC(C)C)C(=O)N[C@H](C(=O)N[C@@H](CO)C(=O)NCC(=O)N[C@H](C(=O)N[C@@H](CO)C(=O)N[C@@H](CC(=O)O)C(=O)N1CCC[C@H]1C(=O)N[C@@H](CCCNC(=N)N)C(=O)N[C@@H](C)C(=O)N[C@@H](CCCNC(=N)N)C(=O)N[C@H](C(=O)N[C@H](C(=O)N[C@@H](Cc1ccc(O)cc1)C(=O)NCC(=O)N[C@H](C(=O)N1CCC[C@H]1C(=O)N[C@@H](CO)C(=O)N[C@@H](CC(C)C)C(=O)N[C@@H](Cc1c[nH]c2ccccc12)C(=O)N[C@@H](C)C(=O)N[C@@H](CCCNC(=N)N)C(=O)N[C@@H](CC(C)C)C(=O)O)[C@@H](C)O)[C@@H](C)O)C(C)C)[C@@H](C)O)[C@@H](C)O` [D-Arg–Dmt–Orn–Phe -1C11] (H-[dR][Dmt][Orn]FALLTSGTSDPRARVTYGTPSLWARL-OH; N-terminus and C-terminus assumed) came in with an IC50 of 89.3 ± 5.49 µM.
